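GI50 marks 50% less growth. Definition used: TGI = concentration required for complete inhibition of growth.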
What was measured:
Experiment in all cases: DTP human tumour cell line panel, 384-well format
MDA-MB-231 breast = system: MDA-MB-231 breast
RPMI-8226 leukemia = system: RPMI-8226 leukemia
UACC-62 melanoma = system: UACC-62 melanoma
NCI-H23 lung = system: NCI-H23 lung
SK-MEL-28 melanoma = system: SK-MEL-28 melanoma
HCT-15 colon = system: HCT-15 colon
UACC-257 melanoma = system: UACC-257 melanoma
UO-31 renal = system: UO-31 renal
SW-620 colon = system: SW-620 colon
OVCAR-3 ovarian = system: OVCAR-3 ovarian
SNB-75 CNS = system: SNB-75 CNS
MCF7 breast = system: MCF7 breast
T-47D breast = system: T-47D breast
HOP-92 NSCLC = system: HOP-92 NSCLC
SR leukemia = system: SR leukemia
NCI-H322M lung = system: NCI-H322M lung
MDA-MB-468 breast = system: MDA-MB-468 breast
SK-OV-3 ovarian = system: SK-OV-3 ovarian
NCI/ADR-RES ovarian = system: NCI/ADR-RES ovarian
NCI-H460 NSCLC = system: NCI-H460 NSCLC
A549 NSCLC = system: A549 NSCLC
SF-268 CNS = system: SF-268 CNS
HCT-116 colon = system: HCT-116 colon
DU-145 prostate = system: DU-145 prostate
A498 renal = system: A498 renal
MOLT-4 leukemia = system: MOLT-4 leukemia
RXF 393 renal = system: RXF 393 renal
KM12 colon = system: KM12 colon
SF-295 CNS = system: SF-295 CNS

Nc1nc(Cl)nc2c1ncn2C1OC(CO)C(O)C1F (stereo not given)
GI50 (MDA-MB-231 breast): 346 nM
TGI (MDA-MB-231 breast): > 100000 nM
GI50 (RPMI-8226 leukemia): 1730 nM
TGI (RPMI-8226 leukemia): 3780 nM
GI50 (UACC-62 melanoma): 208 nM
TGI (UACC-62 melanoma): 476 nM
GI50 (NCI-H23 lung): 37.7 nM
TGI (NCI-H23 lung): 114 nM
GI50 (SK-MEL-28 melanoma): 106 nM
TGI (SK-MEL-28 melanoma): > 100000 nM
GI50 (HCT-15 colon): 202 nM
TGI (HCT-15 colon): > 100000 nM
GI50 (UACC-257 melanoma): 412 nM
GI50 (UO-31 renal): 234 nM
GI50 (SW-620 colon): 401 nM
TGI (SW-620 colon): > 100000 nM
GI50 (OVCAR-3 ovarian): 550 nM
TGI (OVCAR-3 ovarian): > 100000 nM
GI50 (SNB-75 CNS): 1260 nM
TGI (SNB-75 CNS): 7990 nM
GI50 (MCF7 breast): 200 nM
TGI (MCF7 breast): > 100000 nM
GI50 (T-47D breast): 2850 nM
TGI (T-47D breast): > 100000 nM
GI50 (HOP-92 NSCLC): 301 nM
TGI (HOP-92 NSCLC): > 100000 nM
GI50 (SR leukemia): 212 nM
TGI (SR leukemia): 380 nM
GI50 (NCI-H322M lung): 1850 nM
TGI (NCI-H322M lung): > 100000 nM
GI50 (MDA-MB-468 breast): 253 nM
TGI (MDA-MB-468 breast): 699 nM
GI50 (SK-OV-3 ovarian): 315 nM
TGI (SK-OV-3 ovarian): > 100000 nM
GI50 (NCI/ADR-RES ovarian): 35.7 nM
TGI (NCI/ADR-RES ovarian): 1240 nM
GI50 (NCI-H460 NSCLC): 177 nM
TGI (NCI-H460 NSCLC): 376 nM
GI50 (A549 NSCLC): 176 nM
TGI (A549 NSCLC): > 100000 nM
GI50 (SF-268 CNS): 170 nM
TGI (SF-268 CNS): 692 nM
GI50 (HCT-116 colon): 57.6 nM
TGI (HCT-116 colon): > 100000 nM
GI50 (DU-145 prostate): 277 nM
GI50 (A498 renal): 324 nM
TGI (A498 renal): > 23100 nM
GI50 (MOLT-4 leukemia): 14.8 nM
TGI (MOLT-4 leukemia): 28.3 nM
GI50 (RXF 393 renal): 7360 nM
TGI (RXF 393 renal): > 100000 nM
GI50 (KM12 colon): 323 nM
TGI (KM12 colon): > 100000 nM
GI50 (SF-295 CNS): 724 nM
TGI (SF-295 CNS): 1610 nM

Source: PubChem BioAssay (NCI)
